From patent US10428083B2, “Heterocyclylmethyl-thienouracile as antagonists of the adenosine-A2B-receptor” (BAYER PHARMA AKTIENGESELLSCHAFT, priority 2015, dated 2019)

Biological target: human adenosine A2b receptor (Homo sapiens (Human), UniProt P29275)
Assay: Cellular in vitro reporter gene test for A2b receptor activity (CHO-K1, CRE-luciferase, NECA stimulation)
Format: cell-based
Settings: recombinant CHO-K1 cell line, CRE-luciferase reporter, antagonism of EC50 concentration of NECA; in some cases means of several determinations, rounded to two significant figures; read-out: A2b receptor IC50
Outline: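 CHO-K1 cells with CRE-driven luciferase; antagonists co-incubated with NECA at its EC50, determined in a pre-experiment on each test day. Luciferase read by luminescence 3 h after NECA addition.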

human adenosine A2b receptor, sequence (P29275 whole entry): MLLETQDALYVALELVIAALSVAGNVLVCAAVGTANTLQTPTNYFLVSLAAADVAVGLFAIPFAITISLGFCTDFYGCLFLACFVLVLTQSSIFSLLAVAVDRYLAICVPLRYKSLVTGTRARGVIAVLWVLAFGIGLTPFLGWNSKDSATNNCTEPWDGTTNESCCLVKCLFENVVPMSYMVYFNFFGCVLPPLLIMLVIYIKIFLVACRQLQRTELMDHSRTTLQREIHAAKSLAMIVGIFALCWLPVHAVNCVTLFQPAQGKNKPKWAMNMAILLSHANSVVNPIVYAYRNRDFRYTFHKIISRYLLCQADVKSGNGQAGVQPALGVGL

Compound | IC50 [nM]
COC(C)Cn1c(=O)c2c(C)c(Cn3nc[nH]c3=O)sc2n(CCC(F)(F)F)c1=O (single isomer, unassigned) [Example 442, 3-(2-Methoxypropyl)-5-methyl-6-[(5-oxo-4,5-dihydro-1H-1,2,4-triazol-1-yl)methyl]-1-(3,3,3-trifluoropropyl)thieno[2,3-d]pyrimidine-2,4(1H,3H)-dione] | 60
CCn1c(=O)c2c(C)c(CN3CC[C@@H](O)C3=O)sc2n(CCC(F)(F)F)c1=O [Example 126, 3-Ethyl-6-{[(3R)-3-hydroxy-2-oxopyrrolidin-1-yl]methyl}-5-methyl-1-(3,3,3-trifluoropropyl)thieno[2,3-d]pyrimidine-2,4(1H,3H)-dione] | 3.9
CCn1c(=O)c2c(C)c(CN3CCNC3=O)sc2n(CC2CCOC2)c1=O (single isomer, unassigned; enantiomer 1) [Example 74, 3-Ethyl-5-methyl-6-[(2-oxoimidazolidin-1-yl)methyl]-1-(tetrahydrofuran-3-ylmethyl)thieno[2,3-d]pyrimidine-2,4(1H,3H)-dione (Enantiomer 1)] | 36
CCn1c(=O)c2c(C)c(CN3CCNC3=O)sc2n(CC2CCCCO2)c1=O (racemic) [Example 71, 3-Ethyl-5-methyl-6-[(2-oxoimidazolidin-1-yl)methyl]-1-(tetrahydro-2H-pyran-2-ylmethyl)thieno[2,3-d]pyrimidine-2,4(1H,3H)-dione (racemate)] | 70
CCn1c(=O)c2c(C)c(CN3CCN(C(C)=O)C3=O)sc2n(CCOC)c1=O [Example 104, 6-[(3-Acetyl-2-oxoimidazolidin-1-yl)methyl]-3-ethyl-1-(2-methoxyethyl)-5-methylthieno[2,3-d]pyrimidine-2,4(1H,3H)-dione] | 120
COCCn1c(=O)n(CC(C)OC)c(=O)c2c(C)c(CN3CCNC3=O)sc21 (single isomer, unassigned) [Example 234, 1-(2-Methoxyethyl)-3-(2-methoxypropyl)-5-methyl-6-[(2-oxoimidazolidin-1-yl)methyl]thieno[2,3-d]pyrimidine-2,4(1H,3H)-dione] | 7.8
Cc1c(CN2CCNC2=O)sc2c1c(=O)n(C(C)C)c(=O)n2CCF [Example 182, 1-(2-Fluoroethyl)-3-isopropyl-5-methyl-6-[(2-oxoimidazolidin-1-yl)methyl]thieno[2,3-d]pyrimidine-2,4(1H,3H)-dione] | 9
COCCn1c(=O)c2c(C)c(CN3CCNC3=O)sc2n(CC2CCCO2)c1=O (single isomer, unassigned) [Example 324, 3-(2-Methoxyethyl)-5-methyl-6-[(2-oxoimidazolidin-1-yl)methyl]-1-(tetrahydrofuran-2-ylmethyl)thieno[2,3-d]pyrimidine-2,4(1H,3H)-dione] | 110
COCCn1c(=O)n(CC(C)(C)C)c(=O)c2c(C)c(CN3CCNC3=S)sc21 [Example 151, 3-(2,2-Dimethylpropyl)-1-(2-methoxyethyl)-5-methyl-6-[(2-thioxoimidazolidin-1-yl)methyl]thieno[2,3-d]pyrimidine-2,4(1H,3H)-dione] | 5.7
COCCCn1c(=O)c2c(C)c(CN3CCNC3=O)sc2n(CCOC)c1=O [Example 328, 1-(2-Methoxyethyl)-3-(3-methoxypropyl)-5-methyl-6-[(2-oxoimidazolidin-1-yl)methyl]thieno[2,3-d]pyrimidine-2,4(1H,3H)-dione] | 19
COCCn1c(=O)n(CCC(F)=C(F)F)c(=O)c2c(C)c(CN3CCNC3=O)sc21 [Example 321, 1-(2-Methoxyethyl)-5-methyl-6-[(2-oxoimidazolidin-1-yl)methyl]-3-(3,4,4-trifluorobut-3-en-1-yl)thieno[2,3-d]pyrimidine-2,4(1H,3H)-dione] | 1.6
CCOCCn1c(=O)n(CC(F)F)c(=O)c2c(C)c(CN3CCNC3=O)sc21 [Example 215, 3-(2,2-Difluoroethyl)-1-(2-ethoxyethyl)-5-methyl-6-[(2-oxoimidazolidin-1-yl)methyl]thieno[2,3-d]pyrimidine-2,4(1H,3H)-dione] | 45
Cc1c(CN2CCNC2=O)sc2c1c(=O)n(CC(C)C)c(=O)n2CC(F)F [Example 191, 1-(2,2-Difluoroethyl)-3-isobutyl-5-methyl-6-[(2-oxoimidazolidin-1-yl)methyl]thieno[2,3-d]pyrimidine-2,4(1H,3H)-dione] | 3.3
CCn1c(=O)c2c(C)c(CN3CC(N)CC3=O)sc2n(CCC(F)(F)F)c1=O (racemic) [Example 9, 6-[(4-Amino-2-oxopyrrolidin-1-yl)methyl]-3-ethyl-5-methyl-1-(3,3,3-trifluoropropyl)thieno[2,3-d]pyrimidine-2,4(1H,3H)-dione (racemate)] | 97
COCCn1c(=O)n(CCc2ccccc2)c(=O)c2c(C)c(CN3CCC3=O)sc21 [Example 1, 1-(2-Methoxyethyl)-5-methyl-6-[(2-oxoazetidin-1-yl)methyl]-3-(2-phenylethyl)thieno[2,3-d]pyrimidine-2,4(1H,3H)-dione] | 9.7
C=CCCn1c(=O)c2c(C)c(CN3CCNC3=O)sc2n(CCOC)c1=O [Example 316, 3-(But-3-en-1-yl)-1-(2-methoxyethyl)-5-methyl-6-[(2-oxoimidazolidin-1-yl)methyl]thieno[2,3-d]pyrimidine-2,4(1H,3H)-dione] | 1.3
Cc1c(CN2CCNC2=O)sc2c1c(=O)n(CC(C)(C)C)c(=O)n2CC1CCCO1 (single isomer, unassigned) [Example 408, 3-(2,2-Dimethylpropyl)-5-methyl-6-[(2-oxoimidazolidin-1-yl)methyl]-1-(tetrahydrofuran-2-ylmethyl)thieno[2,3-d]pyrimidine-2,4(1H,3H)-dione] | 12
CCn1c(=O)c2c(C)c(Cn3[nH]ccc3=O)sc2n(CCC(F)(F)F)c1=O [Example 127, 3-Ethyl-5-methyl-6-[(5-oxo-2,5-dihydro-1H-pyrazol-1-yl)methyl]-1-(3,3,3-trifluoropropyl)thieno[2,3-d]pyrimidine-2,4(1H,3H)-dione] | 5.6
COCCn1c(=O)n(C(C)C(F)(F)F)c(=O)c2c(C)c(CN3CCNC3=O)sc21 (single isomer, unassigned) [Example 499, 1-(2-Methoxyethyl)-5-methyl-6-[(2-oxoimidazolidin-1-yl)methyl]-3-(1,1,1-trifluoropropan-2-yl)thieno[2,3-d]pyrimidine-2,4(1H,3H)-dione] | 230
COC(=O)N=C1NCCN1Cc1sc2c(c1C)c(=O)n(C(C)C)c(=O)n2CC1CCCO1 (single isomer, unassigned) [Example 459, Methyl [1-{[3-isopropyl-5-methyl-2,4-dioxo-1-(tetrahydrofuran-2-ylmethyl)-1,2,3,4-tetrahydrothieno[2,3-d]pyrimidin-6-yl]methyl}imidazolidin-2-ylidene]carbamate] | 4.9
COCCn1c(=O)n(CC(C)(C)O)c(=O)c2c(C)c(CN3CCNC3=O)sc21 [Example 228, 3-(2-Hydroxy-2-methylpropyl)-1-(2-methoxyethyl)-5-methyl-6-[(2-oxoimidazolidin-1-yl)methyl]thieno[2,3-d]pyrimidine-2,4(1H,3H)-dione] | 130
CCn1c(=O)c2c(C)c(CN3CCC3=O)sc2n(CCC(F)(F)F)c1=O [Example 2, 3-Ethyl-5-methyl-6-[(2-oxoazetidin-1-yl)methyl]-1-(3,3,3-trifluoropropyl)thieno[2,3-d]pyrimidine-2,4(1H,3H)-dione] | 11
COC(C)Cn1c(=O)c2c(C)c(Cn3nc[nH]c3=O)sc2n(CCC(F)(F)F)c1=O (single isomer, unassigned) [Example 441, 3-(2-Methoxypropyl)-5-methyl-6-[(5-oxo-4,5-dihydro-1H-1,2,4-triazol-1-yl)methyl]-1-(3,3,3-trifluoropropyl)thieno[2,3-d]pyrimidine-2,4(1H,3H)-dione] | 8.6
COCCn1c(=O)n(CC(C)OC)c(=O)c2c(C)c(CN3CCNC3=O)sc21 (single isomer, unassigned) [Example 235, 1-(2-Methoxyethyl)-3-(2-methoxypropyl)-5-methyl-6-[(2-oxoimidazolidin-1-yl)methyl]thieno[2,3-d]pyrimidine-2,4(1H,3H)-dione] | 38
CCOCCn1c(=O)n(CC(C)C)c(=O)c2c(C)c(CN3CCNC3=S)sc21 [Example 145, 1-(2-Ethoxyetyl)-3-isobutyl-5-methyl-6-[(2-thioxoimidazolidin-1-yl)methyl]thieno[2,3-d]pyrimidine-2,4(1H,3H)-dione] | 14
Cc1c(CN2CCNC(=O)C2=O)sc2c1c(=O)n(C(C)C)c(=O)n2CC1CCCO1 (single isomer, unassigned) [Example 481, 6-[(2,3-Dioxopiperazin-1-yl)methyl]-3-isopropyl-5-methyl-1-(tetrahydrofuran-2-ylmethyl)thieno[2,3-d]pyrimidine-2,4(1H,3H)-dione] | 140
Cc1c(CN2CCNC2=S)sc2c1c(=O)n(CC(F)(F)F)c(=O)n2CC1CCCO1 (racemic) [Example 157, 5-Methyl-1-(tetrahydrofuran-2-ylmethyl)-6-[(2-thioxoimidazolidin-1-yl)methyl]-3-(2,2,2-trifluoroethyl)thieno[2,3-d]pyrimidine-2,4(1H,3H)-dione] | 5.7
COCCn1c(=O)c2c(C)c(CN3CCNC3=O)sc2n(CC2CCCO2)c1=O (single isomer, unassigned) [Example 325, 3-(2-Methoxyethyl)-5-methyl-6-[(2-oxoimidazolidin-1-yl)methyl]-1-(tetrahydrofuran-2-ylmethyl)thieno[2,3-d]pyrimidine-2,4(1H,3H)-dione] | 65
COCCn1c(=O)c2c(C)c(CN3CCNC3=NC(=O)OC)sc2n(CC2CCO2)c1=O (single isomer, unassigned) [Example 388, Methyl [1-{[3-(2-methoxyethyl)-5-methyl-1-(oxetan-2-ylmethyl)-2,4-dioxo-1,2,3,4-tetrahydrothieno[2,3-d]pyrimidin-6-yl]methyl}imidazolidin-2-ylidene]carbamate] | 33
